Key:
WM-266-4 cells = experiment: Cell Proliferation Inhibitory Test; format: cell-based; settings: Homo sapiens, 72 h, cultured three days with test compound, MTT, read-out: 50% cell proliferation inhibitory activity (GI50 value)
How it was run: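 Cells cultured overnight, then exposed to serially diluted compound for three days; cell amount read by MTT. GI50 solved from 100×[(T−T0)/(C−T0)]=50, with T0 the value at time of compound addition and C the untreated three-day control.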

human mTOR = biological target: T1, human mTOR (Homo sapiens, UniProt P42345); experiment: mTOR Kinase Activity Inhibition Test; format: biochemical; settings: His-tagged mTOR (1362C), biotinylated peptide substrate, ATP, 3 hours at room temperature, fluorescence resonance energy transfer 665 nm/620 nm; read-out: IC50 value of mTOR enzyme inhibitory activity
T1 construct: the portion corresponding to 1362-2549aa at the C terminus of human mTOR; made in house
T1 sequence (P42345 1362-2549): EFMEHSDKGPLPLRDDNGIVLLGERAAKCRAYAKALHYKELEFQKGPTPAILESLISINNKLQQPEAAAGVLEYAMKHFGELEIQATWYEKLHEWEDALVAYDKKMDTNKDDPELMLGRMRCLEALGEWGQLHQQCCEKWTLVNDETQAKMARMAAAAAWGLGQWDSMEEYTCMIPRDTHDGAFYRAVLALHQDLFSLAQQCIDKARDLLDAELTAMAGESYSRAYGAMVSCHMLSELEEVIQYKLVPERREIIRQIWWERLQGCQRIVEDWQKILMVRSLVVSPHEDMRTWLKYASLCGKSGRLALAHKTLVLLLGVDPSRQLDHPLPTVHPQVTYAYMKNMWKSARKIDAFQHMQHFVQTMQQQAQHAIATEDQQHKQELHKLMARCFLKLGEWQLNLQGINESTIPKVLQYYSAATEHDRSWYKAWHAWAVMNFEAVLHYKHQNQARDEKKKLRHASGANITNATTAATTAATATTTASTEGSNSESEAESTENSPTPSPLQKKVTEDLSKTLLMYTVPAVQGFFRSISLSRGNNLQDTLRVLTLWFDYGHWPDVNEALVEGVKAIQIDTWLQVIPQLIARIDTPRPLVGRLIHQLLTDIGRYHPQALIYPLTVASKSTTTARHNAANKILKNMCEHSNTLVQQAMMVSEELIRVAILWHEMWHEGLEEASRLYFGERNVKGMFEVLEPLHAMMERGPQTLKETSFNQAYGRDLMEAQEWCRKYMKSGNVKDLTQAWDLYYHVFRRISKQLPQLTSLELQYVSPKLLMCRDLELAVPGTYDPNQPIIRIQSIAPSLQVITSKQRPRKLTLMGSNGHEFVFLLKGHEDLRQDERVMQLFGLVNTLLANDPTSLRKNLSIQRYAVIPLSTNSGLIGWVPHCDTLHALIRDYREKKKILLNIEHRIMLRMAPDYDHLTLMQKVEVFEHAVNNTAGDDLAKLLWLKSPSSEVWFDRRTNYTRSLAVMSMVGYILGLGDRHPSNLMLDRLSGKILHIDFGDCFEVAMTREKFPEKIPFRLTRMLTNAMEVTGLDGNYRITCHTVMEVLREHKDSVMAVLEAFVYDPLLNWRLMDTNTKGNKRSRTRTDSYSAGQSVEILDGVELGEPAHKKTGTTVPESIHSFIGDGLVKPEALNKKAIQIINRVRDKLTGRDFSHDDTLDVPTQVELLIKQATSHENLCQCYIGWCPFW
How it was run: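 Purified His-tagged human mTOR (1362–2549aa, from HEK293) was used with biotinylated peptide (8 μg/mL in enzyme solution) in HEPES pH 7.5 with 20 mM MnCl2. Compounds were diluted in 20 μM ATP solution, and the reaction ran 3 h at RT. Phospho-S6K(Thr389) HTRF was read as the 665/620 nm ratio, and IC50 came from % inhibition versus controls.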

| Structure (SMILES) | GI50 (WM-266-4 cells) | IC50 (human mTOR) |
| --- | --- | --- |
| N#CC1(Cn2c(=O)[nH]c3ncc(-c4cnc5[nH]ccc5c4)cc32)CCOCC1 [Example 100, 4-{[2-Oxo-6-(1H-pyrrolo[2,3-b]pyridin-5-yl)-2,3-dihydro-1H-imidazo[4,5-b]pyridin-1-yl]methyl}tetrahydro-2H-pyran-4-carbonitrile] | < 3000 nM | < 50 nM |
| O=c1[nH]c2ncc(-c3cnc4[nH]ccc4c3)cc2n1C[C@@H]1COCCO1 [Example 39, 1-[(2R)-1,4-Dioxan-2-ylmethyl]-6-(1H-pyrrolo[2,3-b]pyridin-5-yl)-1,3-dihydro-2H-imidazo[4,5-b]pyridin-2-one] | < 3000 nM | < 50 nM |
| CO[C@@H]1CC[C@H](Cn2c(=O)[nH]c3ncc(-c4cnc5[nH]cc(C)c5c4C)cc32)OC1 [Example 147, 2,6-Anhydro-1,3,4-trideoxy-1-[6-(3,4-dimethyl-1H-pyrrolo[2,3-b]pyridin-5-yl)-2-oxo-2,3-dihydro-1H-imidazo[4,5-b]pyridin-1-yl]-5-O-methyl-L-threo-hexitol] | < 3000 nM | < 50 nM |
| CC1(C)CC(Cn2c(=O)[nH]c3ncc(-c4cnc5[nH]ccc5c4)cc32)CCO1 (racemic) [Example 70, 1-[(2,2-Dimethyltetrahydro-2H-pyran-4-yl)methyl]-6-(1H-pyrrolo[2,3-b]pyridin-5-yl)-1,3-dihydro-2H-imidazo[4,5-b]pyridin-2-one] | < 3000 nM | < 50 nM |
| O=c1[nH]c2ncc(-c3cnc4c(c3)CCN4)cc2n1C[C@H]1COCCO1 [Example 121, 6-(2,3-Dihydro-1H-pyrrolo[2,3-b]pyridin-5-yl)-1-[(2S)-1,4-dioxan-2-ylmethyl]-1,3-dihydro-2H-imidazo[4,5-b]pyridin-2-one] | < 3000 nM | < 50 nM |
| CO[C@H]1CC[C@@H](Cn2c(=O)[nH]c3ncc(-c4cnc5[nH]ccc5c4)cc32)CC1 [Example 99, 1-[(cis-4-Methoxycyclohexyl)methyl]-6-(1H-pyrrolo[2,3-b]pyridin-5-yl)-1,3-dihydro-2H-imidazo[4,5-b]pyridin-2-one] | < 3000 nM | < 50 nM |
| O=c1[nH]c2ncc(-c3cnc4[nH]ccc4c3)cc2n1C[C@H]1CC[C@@H](O)CC1 [Example 102, 1-[(cis-4-Hydroxycyclohexyl)methyl]-6-(1H-pyrrolo[2,3-b]pyridin-5-yl)-1,3-dihydro-2H-imidazo[4,5-b]pyridin-2-one] | < 3000 nM | < 50 nM |
| O=c1[nH]c2ncc(-c3cc(F)c4[nH]ccc4c3)cc2n1CCN1CCOCC1 [Example 33, 6-(7-Fluoro-1H-indol-5-yl)-1-(2-morpholin-4-ylethyl)-1,3-dihydro-2H-imidazo[4,5-b]pyridin-2-one] | < 3000 nM | < 50 nM |
| CNC(=O)c1c[nH]c2ncc(-c3cnc4[nH]c(=O)n(CC5CCOCC5)c4c3)cc12 [Example 94, N-Methyl-5-[2-oxo-1-(tetrahydro-2H-pyran-4-ylmethyl)-2,3-dihydro-1H-imidazo[4,5-b]pyridin-6-yl]-1H-pyrrolo[2,3-b]pyridine-3-carboxamide] | 3000 to 25000 nM | 100 to 5000 nM |
| O=c1[nH]c2ncc(-c3cnc4[nH]ccc4c3)cc2n1CC1COCCN1 (stereo not drawn) [Example 108, 1-(Morpholin-3-ylmethyl)-6-(1H-pyrrolo[2,3-b]pyridin-5-yl)-1,3-dihydro-2H-imidazo[4,5-b]pyridin-2-one] | < 3000 nM | < 50 nM |
| CS(=O)(=O)N1CCC(Cn2c(=O)[nH]c3ncc(-c4cnc5[nH]ccc5c4)cc32)CC1 [Example 26, 1-{[1-(Methanesulfonyl)piperidin-4-yl]methyl}-6-(1H-pyrrolo[2,3-b]pyridin-5-yl)-1,3-dihydro-2H-imidazo[4,5-b]pyridin-2-one] | < 3000 nM | < 50 nM |
| CO[C@@H]1COC[C@H]1Cn1c(=O)[nH]c2ncc(-c3cnc4[nH]ccc4c3)cc21 (racemic) [Example 64, 1-{[trans-4-Methoxytetrahydrofuran-3-yl]methyl}-6-(1H-pyrrolo[2,3-b]pyridin-5-yl)-1,3-dihydro-2H-imidazo[4,5-b]pyridin-2-one] | < 3000 nM | < 50 nM |
| Cc1c(-c2cnc3[nH]ccc3c2)cnc2[nH]c(=O)n(CC3CCOCC3)c12 [Example 18, 7-Methyl-6-(1H-pyrrolo[2,3-b]pyridin-5-yl)-1-(tetrahydro-2H-pyran-4-ylmethyl)-1,3-dihydro-2H-imidazo[4,5-b]pyridin-2-one] | < 3000 nM | < 50 nM |
| CN1C(=O)COC[C@@H]1Cn1c(=O)[nH]c2ncc(-c3cnc4[nH]ccc4c3)cc21 [Example 109, 1-{[(3S)-4-Methyl-5-oxomorpholin-3-yl]methyl}-6-(1H-pyrrolo[2,3-b]pyridin-5-yl)-1,3-dihydro-2H-imidazo[4,5-b]pyridin-2-one] | 3000 to 25000 nM | < 50 nM |
| O=c1[nH]c2nc(Cl)c(-c3cnc4[nH]ccc4c3)cc2n1C[C@H]1COCCO1 [Example 155, 5-Chloro-1-[(2S)-1,4-dioxan-2-ylmethyl]-6-(1H-pyrrolo[2,3-b]pyridin-5-yl)-1,3-dihydro-2H-imidazo[4,5-b]pyridin-2-one] | < 3000 nM | < 50 nM |
| O=c1[nH]c2ncc(-c3cnc4cc[nH]c4c3)cc2n1CC1CCOCC1 [Example 88, 6-(1H-Pyrrolo[3,2-b]pyridin-6-yl)-1-(tetrahydro-2H-pyran-4-ylmethyl)-1,3-dihydro-2H-imidazo[4,5-b]pyridin-2-one] | < 3000 nM | 100 to 5000 nM |
| O=c1[nH]c2ncc(-c3cnc4[nH]cc(Cl)c4c3)cc2n1CC1CCOCC1 [Example 35, 6-(3-Chloro-1H-pyrrolo[2,3-b]pyridin-5-yl)-1-(tetrahydro-2H-pyran-4-ylmethyl)-1,3-dihydro-2H-imidazo[4,5-b]pyridin-2-one] | < 3000 nM | < 50 nM |
| Cc1[nH]c2ncc(-c3cnc4[nH]c(=O)n(CC5CCOCC5)c4c3)cc2c1C [Example 87, 6-(2,3-Dimethyl-1H-pyrrolo[2,3-b]pyridin-5-yl)-1-(tetrahydro-2H-pyran-4-ylmethyl)-1,3-dihydro-2H-imidazo[4,5-b]pyridin-2-one] | 3000 to 25000 nM | 100 to 5000 nM |
| O=c1[nH]c2ncc(-c3cnc4[nH]ccc4c3)cc2n1C1CCOCC1 [Example 19, 6-(1H-Pyrrolo[2,3-b]pyridin-5-yl)-1-(tetrahydro-2H-pyran-4-yl)-1,3-dihydro-2H-imidazo[4,5-b]pyridin-2-one] | < 3000 nM | < 50 nM |
| CO[C@@H]1CCO[C@H](Cn2c(=O)[nH]c3ncc(-c4cnc5[nH]ccc5c4)cc32)C1 [Example 138, 2,6-Anhydro-1,3,5-trideoxy-4-O-methyl-1-[2-oxo-6-(1H-pyrrolo[2,3-b]pyridin-5-yl)-2,3-dihydro-1H-imidazo[4,5-b]pyridin-1-yl]-D-threo-hexitol] | < 3000 nM | < 50 nM |
| C[C@@H]1C[C@H](Cn2c(=O)[nH]c3ncc(-c4cnc5[nH]ccc5c4)cc32)C[C@H](C)O1 [Example 71, 1-{[(2R-4r-6S)-2,6-Dimethyltetrahydro-2H-pyran-4-yl]methyl}-6-(1H-pyrrolo-[2,3-b]pyridin-5-yl)-1,3-dihydro-2H-imidazo[4,5-b]pyridin-2-one] | < 3000 nM | < 50 nM |
| CO[C@@H]1CC[C@H](Cn2c(=O)[nH]c3ncc(-c4cnc5[nH]ccc5c4C)cc32)OC1 [Example 146, 2,6-Anhydro-1,3,4-trideoxy-5-O-methyl-1-[6-(4-methyl-1H-pyrrolo[2,3-b]pyridin-5-yl)-2-oxo-2,3-dihydro-1H-imidazo[4,5-b]pyridin-1-yl]-L-threo-hexitol] | < 3000 nM | < 50 nM |
| O=c1[nH]c2ncc(-c3ccc4[nH]ccc4c3)cc2n1CCC1CCOCC1 [Example 3, 6-(1H-Indol-5-yl)-1-[2-(tetrahydro-2H-pyran-4-yl)ethyl]-1,3-dihydro-2H-imidazo[4,5-b]pyridin-2-one] | < 3000 nM | < 50 nM |
| Nc1c[nH]c2ncc(-c3cnc4[nH]c(=O)n(CC5CCOCC5)c4c3)cc12 [Example 77, 6-(3-Amino-1H-pyrrolo[2,3-b]pyridin-5-yl)-1-(tetrahydro-2H-pyran-4-ylmethyl)-1,3-dihydro-2H-imidazo[4,5-b]pyridin-2-one] | 3000 to 25000 nM | 50 to 100 nM |
| CCOC(=O)c1c[nH]c2ncc(-c3cnc4[nH]c(=O)n(CC5CCOCC5)c4c3)cc12 [Example 92, Ethyl 5-[2-oxo-1-(tetrahydro-2H-pyran-4-ylmethyl)-2,3-dihydro-1H-imidazo[4,5-b]pyridin-6-yl]-1H-pyrrolo[2,3-b]pyridine-3-carboxylate] | < 3000 nM | < 50 nM |
| CO[C@@H]1CC[C@H](Cn2c(=O)[nH]c3ncc(-c4cnc5[nH]ccc5c4)cc32)OC1 (racemic) [Example 113, 2,6-Anhydro-1,3,4-trideoxy-5-O-methyl-1-[2-oxo-6-(1H-pyrrolo[2,3-b]pyridin-5-yl)-2,3-dihydro-1H-imidazo[4,5-b]pyridin-1-yl]-DL-threo-hexitol] | < 3000 nM | < 50 nM |
| Cc1c(-c2cnc3[nH]c(=O)n(C[C@H]4CC[C@@H](O)CO4)c3c2)cnc2[nH]ccc12 (racemic) [Example 141, 2,6-Anhydro-1,3,4-trideoxy-1-[6-(4-methyl-1H-pyrrolo[2,3-b]pyridin-5-yl)-2-oxo-2,3-dihydro-1H-imidazo[4,5-b]pyridin-1-yl]-DL-threo-hexitol] | < 3000 nM | < 50 nM |

— US8436012B2, “Imidazopyridin-2-one derivatives” (Daiichi Sankyo Company, Limited, priority 2008, dated 2013)
